Read-outs that look alike come from different tables or passages of the source.
Columns and labels:
HIV-1 protease = HIV-1 protease (Human immunodeficiency virus type 1 group M subtype B, UniProt P04585); assay: HIV protease inhibition assay (quenched fluorogenic substrate, fluorescence energy transfer); settings: crude HIV-1 protease from E. coli, pH 4.7, 2 hours at 37° C.
Experimental: HIV Protease Inhibition Assay
HIV protease inhibitory activity was assessed using an adaptation of the method of Matayoshi. et al. [Matayoshi E. D. et al (1990).
Crude HIV-1 protease was prepared from E. coli pPTΔN. Cultures were grown at 30° C. in M9 medium supplemented with 0.2% casamino acids, 100 μg/ml ampicillin and 25 μg/ml thiamine until OD600=0.5-0.6, and the temperature was raised to 42° C. to induce expression of the protease. After 1.5 hours, the cells were harvested and the pellets stored at −70° C. until required.
The protease was prepared by lysis of the cells in a French pressure cell followed by precipitation of the enzyme with ammonium sulfate at 30% saturation.
The assay buffer comprised 0.1M sodium acetate pH 4.7, 8 mM EDTA, 0.2 M NaCl.
Tubes were incubated for 2 hours at 37° C. and the reaction was terminated by the addition of 500 μl of a 2:1 mixture of DMSO: 50 mM Tricine pH 8.5. Fluorescence was measured in a fluorescence spectrophotometer, excitation λ=340 nm, emission λ=492 nm.

HIV-HXB2 in MT4 cells = assay: Antiviral assay: protection of HIV-infected MT4 cells from cell death (MTT); type: cell-based; settings: MT4 cells infected with HIV-HXB2, 5 days, concentration preserving cell viability by 50%
Experimental: Methods 20: 309-321]. The method is based on the ability of compounds to protect HIV-infected T lymphoblastoid cells (MT4 cells) from cell-death mediated by the infection. The endpoint of the assay was calculated as the concentration of compound at which the cell viability of the culture was preserved by 50% (‘50% inhibitory concentration’, IC50). The cell viability of a culture was determined by the uptake of soluble, yellow 3-[4,5-dimethylthiazol-2-yl]-2,5-diphenyltetrazolium bromide (MTT) and its reduction to a purple insoluble formazan salt. After solubilization, spectrophotometric methods were employed to measure the amount of formazan product. MT4 cells were prepared to be in logarithmic-phase growth and a total of 2×10^6 cells infected with either the wild type or site directed mutant clones of HIV-HXB2 at a multiplicity of approximately 0.0001 infectious units of virus per cell in a total volume of between 200-500 μl. The cells were incubated with virus for one hour at 37° C. then washed in 0.01 M phosphate buffered saline, pH 7.2, and resuspensed in culture medium for incubation in culture with serial dilutions of test compound. The culture medium used was RPMI 1640 without phenol red, supplemented with penicillin, streptomycin, L-glutamine and 10% fetal calf serum (GM 10).
Test compounds were prepared as 2 mM solutions in dimethyl sulphoxide (DMSO). Four replicate, serial 2-fold dilutions in GM10 were then prepared and 50 microlitre amounts placed in 96-well plates over a final concentration range of 625-1.22 nm. Fifty microlitres GM10 and 3.75×10^4 infected cells were then added to each well. Control cultures containing no cells (blank), uninfected cells (100% viability; 4 replicates) and infected cells without compound (total virus-mediated cell death; 4 replicates) were also prepared. The cultures were then incubated at 37° C. in a humidified atmosphere of 5% CO2 in air for 5 days.
A fresh solution of 5 mg/mL MTT was prepared in 0.01 M phosphate buffered saline, pH 7.2 and 20 μL added to each culture. The cultures were further incubated as before for 2 hours. They were then mixed by pipetting up and down, and 170 microlitres of Triton X-100 in acidified isopropanol (10% v/v Triton X-100 in 1:250 mixture of concentrated HCl in isopropanol) were added and the cultures were mixed again by pipetting up and down. When the formazan deposit was fully solubilised by further mixing, the absorbance (OD) of the cultures was measured at 540 nm and 690 nm wavelength (690 nm readings were used as blanks for artefacts between wells). The percent protection for each treated culture was then calculated from the equation: [formula]
The IC50 was then obtained from graph plots of percentage protection versus log10 drug concentration.

[1] = Human immunodeficiency virus 1, HXB2, MT4, 120 h

With CC(C)(C)NC(=O)[C@@H]1CCCCC1C[C@@H](O)[C@H](Cc1ccccc1)NC(=O)[C@@H](CSc1cccc2ccccc12)NS(C)(=O)=O (stereo in doubt) [Example 13, 2-{2-Hydroxy-3-[2-methanesulfonylamino-3-(naphthalen-1-ylsulfanyl)-propionylamino]-4-phenyl-butyl}-cyclohexanecarboxylic acid tert-butylamide] as the molecule, how does the IC50 (HIV-1 protease; Enzyme IC50 (nM)) read?
Its IC50 is 0.44 nM.

What does the source list for COC1CCC(C[C@@H](O)[C@H](Cc2ccccc2)NC(=O)[C@@H](CSc2ccc3ccccc3c2)NS(C)(=O)=O)C(C(=O)NC(C)(C)C)C1 (stereo partly drawn) [Example 1, 2-{2-hydroxy-3-[2-methanesulfonylamino-3-(naphthalen-2-ylsulfanyl)-propionylamino]-4-phenyl-butyl}-5-methoxy-cyclohexanecarboxylic acid tert-butylamide]?
IC50 (HIV-1 protease; Enzyme IC50 (nM)): 0.31 nM; IC50 (HIV-HXB2 in MT4 cells; [1]): 29 nM

Which IC50 (HIV-1 protease; Enzyme IC50 (nM)) does the source give for CC1CC(C[C@@H](O)[C@H](Cc2ccccc2)NC(=O)[C@@H](CSc2ccc3ccccc3c2)NS(C)(=O)=O)C(C(=O)NC(C)(C)C)C1 (stereo partly drawn) [Example 2, 2-{2-Hydroxy-3-[2-methanesulfonylamino-3-(naphthalen-2-ylsulfanyl)-propionylamino]-4-phenyl-butyl}-4-methyl-cyclopentanecarboxylic acid tert-butylamide] here?
The IC50 was 1.5 nM.

What about the IC50 (HIV-HXB2 in MT4 cells; [1]) of the same molecule?
The IC50 was 230 nM.

For CO[C@H]1CC[C@@H](C(=O)NC(C)(C)C)C(C[C@@H](O)[C@H](Cc2ccccc2)NC(=O)[C@@H](CSc2ccc3ccccc3c2)NS(C)(=O)=O)C1 (stereo partly drawn) [Example 7, N-tert-Butyl-[2-hydroxy-3-[[N2-(methanesulfonyl)-S-(2-naphthyl)-D-cysteinyl]amino]-4-phenylbutyl]-4-methoxy-1-cyclohexanecarboxamide], which IC50 (HIV-1 protease; Enzyme IC50 (nM)) is on record?
The IC50 was 0.42 nM.

What about the IC50 (HIV-HXB2 in MT4 cells; [1]) of the same molecule?
The IC50 was 35.8 nM.

What does the source list for COC1CCC(C[C@@H](O)[C@H](Cc2ccccc2)NC(=O)[C@@H](CSc2ccc3ccccc3c2)NS(C)(=O)=O)C(C(=O)NC(C)(C)C)C1 (stereo partly drawn) [Example 10, 2-{2-Hydroxy-3-[2-methanesulfonylamino-3-(naphthalen-2-ylsulfanyl)-propionylamino]-4-phenyl-butyl}-5-methoxy-cyclohexanecarboxylic acid tert-butylamide]?
IC50 (HIV-1 protease; Enzyme IC50 (nM)): 0.3 nM; IC50 (HIV-HXB2 in MT4 cells): 28 nM

What does the source list for COC1CCC(C[C@@H](O)[C@H](Cc2ccccc2)NC(=O)[C@@H](C[S+]([O-])c2ccc3ccccc3c2)NS(C)(=O)=O)C(C(=O)NC(C)(C)C)C1 (stereo partly drawn) [Example 14, 2-{2-Hydroxy-3-[2-methanesulfonylamino-3-(naphthalene-2-sulfinyl)-propionylamino]-4-phenyl-butyl}-5-methoxy-cyclohexanecarboxylic Acid tert-Butylamide]?
IC50 (HIV-1 protease; Enzyme IC50 (nM)): 0.2 nM; IC50 (HIV-HXB2 in MT4 cells; [1]): 20.9 nM

How did the IC50 (HIV-1 protease; Enzyme IC50 (nM)) turn out when CC1CC(C[C@@H](O)[C@H](Cc2ccccc2)NC(=O)[C@@H](C[S+]([O-])c2ccc3ccccc3c2)NS(C)(=O)=O)C(C(=O)NC(C)(C)C)C1 (stereo partly drawn) [Example 15, 2-{2-Hydroxy-3-[2-methanesulfonylamino-3-(naphthalene-2-sulfinyl)-propionylamino]-4-phenyl-butyl}-4-methyl-cyclopentanecarboxylic acid tert-butylamide] was run?
Its IC50 is 1.5 nM.

And the IC50 (HIV-HXB2 in MT4 cells; [1])?
Its IC50 is 27 nM.

Which IC50 (HIV-1 protease; read-out: Enzyme IC50) does the source give for COC1CCC(C[C@@H](O)[C@H](Cc2ccccc2)NC(=O)[C@@H](C[S+]([O-])c2ccc3ccccc3c2)NS(C)(=O)=O)C(C(=O)NC(C)(C)C)C1 (stereo partly drawn) [Example 20, 2-{2-Hydroxy-3-[2-methanesulfonylamino-3-(naphthalene-2-sulfinyl)-propionylamino]-4-phenyl-butyl}-5-methoxy-cyclohexanecarboxylic acid tert-butylamide] here?
Its IC50 is 0.2 nM.

And the IC50 (HIV-HXB2 in MT4 cells)?
The IC50 was 21 nM.

Which IC50 (HIV-1 protease; Enzyme IC50 (nM)) does the source give for CC(C)(C)NC(=O)C1CCCCC1C[C@@H](O)[C@H](Cc1ccccc1)NC(=O)[C@@H](C[S+]([O-])c1cccc2ccccc12)NS(C)(=O)=O (stereo partly drawn) [Example 21, 2-{2-Hydroxy-3-[2-methanesulfonylamino-3-(naphthalene-1-sulfinyl)-propionylamino]-4-phenyl-butyl}-cyclohexanecarboxylic acid tert-butylamide] here?
Its IC50 is 0.31 nM.

Which results are given for CC1CC(C[C@@H](O)[C@H](Cc2ccccc2)NC(=O)[C@@H](CS(=O)(=O)c2ccc3ccccc3c2)NS(C)(=O)=O)C(C(=O)NC(C)(C)C)C1 (stereo partly drawn) [Example 23, 2-{2-Hydroxy-3-[2-methanesulfonylamino-3-(naphthalene-2-sulfonyl)-propionylamino]-4-phenyl-butyl}-4-methyl-cyclopentanecarboxylic acid tert-butylamide]?
IC50 (HIV-1 protease; Enzyme IC50 (nM)): 0.55 nM; IC50 (HIV-HXB2 in MT4 cells; [1]): 13 nM

With CO[C@H]1CC[C@@H](C(=O)NC(C)(C)C)C(C[C@@H](O)[C@H](Cc2ccccc2)NC(=O)[C@@H](CS(=O)(=O)c2ccc3ccccc3c2)NS(C)(=O)=O)C1 (stereo partly drawn) [Example 27, N-tert-Butyl-2-[2-hydroxy-3-[[N2-(methanesulfonyl)-S-(2-naphthyl)-D-cysteinyl]amino]-4-phenylbutyl]-4-methoxy-1-cyclohexanecarboxamide S,S-dioxide] as the molecule, how does the IC50 (HIV-1 protease; Enzyme IC50 (nM)) read?
Its IC50 is 0.2 nM.

And the IC50 (HIV-HXB2 in MT4 cells; [1])?
Its IC50 is 8.3 nM.

For COC1CCC(C[C@@H](O)[C@H](Cc2ccccc2)NC(=O)[C@@H](CS(=O)(=O)c2cccc3ccccc23)NS(C)(=O)=O)C(C(=O)NC(C)(C)C)C1 (stereo partly drawn) [Example 29, 2-{2-Hydroxy-3-[2-methanesulfonylamino-3-(naphthalene-1-sulfonyl)-propionylamino]-4-phenyl-butyl}-5-methoxy-cyclohexanecarboxylic acid tert-butylamide], which IC50 (HIV-1 protease; Enzyme IC50 (nM)) is on record?
The IC50 was 0.41 nM.

And the IC50 (HIV-HXB2 in MT4 cells; [1])?
The IC50 was 73 nM.

How did the IC50 (HIV-1 protease; Enzyme IC50 (nM)) turn out when COC1CCC(C[C@@H](O)[C@H](Cc2ccccc2)NC(=O)[C@@H](CS(=O)(=O)c2ccc3ccccc3c2)NS(C)(=O)=O)C(C(=O)NC(C)(C)C)C1 (stereo partly drawn) [Example 30, 2-{2-Hydroxy-3-[2-methanesulfonylamino-3-(naphthalene-2-sulfonyl)-propionylamino]-4-phenyl-butyl}-5-methoxy-cyclohexanecarboxylic acid tert-butylamide] was run?
Its IC50 is 0.6 nM.

What about the IC50 (HIV-HXB2 in MT4 cells; [1]) of the same molecule?
Its IC50 is 173 nM.
